Assays:
[1] = molecular target: Kappa-type opioid receptor (Homo sapiens, UniProt P41145)
[2] = molecular target: Delta-type opioid receptor (Homo sapiens, UniProt P41143)
Mu-type opioid receptor = Mu-type opioid receptor (Homo sapiens, UniProt P35372)
Mu-type opioid receptor, sequence (P35372 whole entry): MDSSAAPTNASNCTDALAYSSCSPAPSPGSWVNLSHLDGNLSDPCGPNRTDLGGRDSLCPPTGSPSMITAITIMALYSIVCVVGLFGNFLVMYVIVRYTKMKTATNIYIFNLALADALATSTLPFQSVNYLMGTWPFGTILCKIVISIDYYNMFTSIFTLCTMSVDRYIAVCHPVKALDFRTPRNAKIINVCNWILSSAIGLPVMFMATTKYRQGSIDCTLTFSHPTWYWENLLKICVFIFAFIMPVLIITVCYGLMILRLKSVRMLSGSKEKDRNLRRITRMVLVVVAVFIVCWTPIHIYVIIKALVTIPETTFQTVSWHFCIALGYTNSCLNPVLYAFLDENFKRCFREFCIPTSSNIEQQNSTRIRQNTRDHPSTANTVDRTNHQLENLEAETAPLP

Kappa-type opioid receptor, sequence (P41145 whole entry): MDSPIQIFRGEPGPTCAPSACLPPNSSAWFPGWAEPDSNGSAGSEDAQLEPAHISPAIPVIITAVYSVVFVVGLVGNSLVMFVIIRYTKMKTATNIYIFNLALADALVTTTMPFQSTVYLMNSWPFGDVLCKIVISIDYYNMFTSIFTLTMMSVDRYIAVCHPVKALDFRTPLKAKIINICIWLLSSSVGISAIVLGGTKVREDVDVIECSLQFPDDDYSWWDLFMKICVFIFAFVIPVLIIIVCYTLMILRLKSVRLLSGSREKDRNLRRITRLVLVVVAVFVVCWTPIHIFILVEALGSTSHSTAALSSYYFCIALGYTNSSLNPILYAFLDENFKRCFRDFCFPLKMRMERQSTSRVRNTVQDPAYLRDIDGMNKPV
Delta-type opioid receptor, sequence (P41143 whole entry): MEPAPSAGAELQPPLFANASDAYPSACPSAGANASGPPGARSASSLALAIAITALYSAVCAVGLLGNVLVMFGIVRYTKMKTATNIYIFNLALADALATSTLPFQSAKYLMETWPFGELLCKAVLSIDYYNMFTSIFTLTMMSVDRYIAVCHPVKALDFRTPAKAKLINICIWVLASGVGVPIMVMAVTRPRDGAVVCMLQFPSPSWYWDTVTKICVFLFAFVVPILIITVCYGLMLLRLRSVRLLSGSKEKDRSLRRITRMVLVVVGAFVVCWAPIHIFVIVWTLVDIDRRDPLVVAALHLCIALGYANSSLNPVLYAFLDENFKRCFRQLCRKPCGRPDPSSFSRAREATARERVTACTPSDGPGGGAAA

SMILES | Ki [1] [nM] | Ki [2] [nM] | Ki (Mu-type opioid receptor) [nM]
Oc1ccc2c(c1)[C@@]13CCCC[C@H]1C(C2)N(CC1CCC1)CC3 [MCL-101] | 79 | – | –
O=C(/C=C/C(=O)Oc1ccc2c(c1)[C@]13CCCCC1[C@H](C2)N(CC1CCC1)CC3)Oc1ccc2c(c1)[C@]13CCCCC1[C@H](C2)N(CC1CCC1)CC3 (some centres undefined) [MCL-145] | 78 | 9400 | 200
